Results from PubChem BioAssay (NCI).
Values joined by “and” are separate entries in the source; they are usually repeats but may differ in a detail not shown here. Equal values may be shown once.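 Tested at 5 concentrations; 48 h exposure; 96-well plates; endpoints linearly interpolated, else capped at highest concentration. GI50: concentration for 50% inhibition of growth. TGI is the concentration that stops growth completely.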

Tests used:
Test in all cases: NCI anticancer screen, dose series, 48 h
RXF 393 renal = tested on: RXF 393 renal
OVCAR-8 ovarian = tested on: OVCAR-8 ovarian
UACC-257 melanoma = tested on: UACC-257 melanoma
OVCAR-3 ovarian = tested on: OVCAR-3 ovarian
HL-60(TB) leukemia = tested on: HL-60(TB) leukemia
SF-539 CNS = tested on: SF-539 CNS
HOP-92 NSCLC = tested on: HOP-92 NSCLC
HS 578T breast = tested on: HS 578T breast
MDA-MB-231 breast = tested on: MDA-MB-231 breast
786-0 renal = tested on: 786-0 renal

Structure (SMILES) | TGI (RXF 393 renal) | TGI (OVCAR-8 ovarian) | TGI (UACC-257 melanoma) | TGI (OVCAR-3 ovarian) | TGI (HL-60(TB) leukemia) | TGI (SF-539 CNS) | TGI (HOP-92 NSCLC) | TGI (HS 578T breast) | TGI (MDA-MB-231 breast) | TGI (786-0 renal) | GI50 (OVCAR-8 ovarian) | GI50 (UACC-257 melanoma) | GI50 (OVCAR-3 ovarian) | GI50 (HL-60(TB) leukemia) | GI50 (SF-539 CNS) | GI50 (HOP-92 NSCLC) | GI50 (RXF 393 renal) | GI50 (HS 578T breast) | GI50 (MDA-MB-231 breast)
COc1cc(/C=N/NC(=O)c2c(Cl)c(Cl)c(Cl)c(Cl)c2-c2nc3ccc(C(=O)c4ccccc4)cc3[nH]2)ccc1O | > 100 µM | > 100 µM | > 100 µM | > 100 µM | 61.1 µM | > 100 µM | > 100 µM | > 100 µM | > 100 µM | > 100 µM | – | – | – | – | – | – | – | – | –
O=C(/C=C/c1ccc([N+](=O)[O-])cc1)N1CCN(CCOC(c2ccc(F)cc2)c2ccc(F)cc2)CC1 | > 100 µM | > 100 µM | > 100 µM | > 100 µM | > 100 µM | > 100 µM | 83.8 µM | > 100 µM | > 100 µM | > 100 µM | – | – | – | – | – | – | – | – | –
COc1cccc([C@@H]2C/C(=N\NC(=O)C(=O)N[C@@H](C)c3ccccc3)c3ccccc3N2)c1 | > 100 µM | – | > 100 µM | > 100 µM | – | 30.4 µM | > 100 µM | > 100 µM | > 100 µM | > 100 µM | – | – | – | – | – | – | – | – | –
c1ccc(/C(=N\Nc2nc3ccccc3[nH]2)c2ccccn2)cc1 | 14.4 µM | 1.05 µM | 4.63 µM | 2.99 µM | – | 1.64 µM | 0.887 µM | 51.7 µM | 41.2 µM | 2.57 µM | – | – | – | – | – | – | – | – | –
c1ccc(CSC(SCc2ccccc2)c2cccc3ccccc23)cc1 | > 10 µM | > 10 µM | – | – | > 10 µM | > 10 µM | – | > 10 µM | > 10 µM | – | – | – | – | – | – | – | – | – | –
C[n+]1c2ccccc2c(N=[N+]=[N-])c2ccccc21 | > 10 µM | > 10 µM | > 10 µM | > 10 µM | > 10 µM | > 10 µM | – | > 10 µM | > 10 µM | > 10 µM | – | – | – | – | – | – | – | – | –
O=C1OC(c2ccc(O)cc2)(c2ccc(O)cc2)c2ccc(Cl)c3cccc1c23 (tested in a mixture with another compound) | 27.4 µM | 38.9 µM | 70.1 µM | > 75 µM | – | 20.8 µM | > 75 µM | 40.6 µM | 26.1 µM | – | – | – | – | – | – | – | – | – | –
CC[C@@]1(O)CC(OC2CC(N3CCOCC3)C(O)C(C)O2)c2c(O)c3c(c(O)c2[C@H]1O)C(=O)c1cccc(O)c1C3=O (some centres undefined) | 0.715 µM and 1.15 µM | 1.07 µM and 5.5 µM | 1.34 µM and 0.69 µM | 2.73 µM and 1.63 µM | 0.431 µM and 0.36 µM | 1.07 µM and 0.71 µM | 0.383 µM and 0.871 µM | 1.61 µM | 1.94 µM | 2.18 µM | 0.0285 µM | 0.108 µM | 0.176 µM | 0.000481 µM and < 0.0113 µM | 0.0233 µM | 0.0725 µM | – | – | –
Cc1cc(C)c2c(=O)n(CC(O)CN(Cc3ccccc3)CC(O)Cn3sc4nc(C)cc(C)c4c3=O)sc2n1 (centres undefined) | 33.6 µM | 34.5 µM | 31.7 µM | 29.8 µM | > 100 µM | 32 µM | 31.7 µM | 40.4 µM | 31.6 µM | 27.7 µM | – | – | – | – | – | – | – | – | –
NC1CCN(c2nc3ccccc3c3c2CCCC3)CC1 | 11.2 µM | 32.8 µM | 4.31 µM | 28.1 µM | 8.84 µM | 11.8 µM | 17.2 µM | > 100 µM | 12.8 µM | 13.3 µM | – | – | – | – | – | – | – | – | –
O=C(CSCC(=O)N/N=C\c1ccc(F)cc1F)N/N=C\c1ccc(F)cc1F | > 100 µM | > 100 µM | > 100 µM | > 100 µM | > 100 µM | > 100 µM | > 100 µM | > 100 µM | > 100 µM | > 100 µM | – | – | – | – | – | – | – | – | –
C=C(CN(C)C)C(=O)c1ccccc1OC | 23.7 µM | 50 µM | 30 µM | 32.9 µM | > 35.8 µM | 31.5 µM | 32.1 µM | 56.8 µM | 28 µM | 30 µM | – | – | – | – | – | – | – | – | –
O=C(O)c1cc2ccccc2c(N=Nc2ccc(S(=O)(=O)Nc3ccccn3)cc2)c1O | > 100 µM | > 100 µM | > 100 µM | > 100 µM | > 100 µM | > 100 µM | > 100 µM | > 100 µM | > 100 µM | > 100 µM | – | – | – | – | – | – | – | – | –
CC1(C)CN(CC(=O)O)CC(Cc2ccc(OCC(=O)O)cc2)N(CC(=O)O)CC(C)(C)SS1 (centres undefined) | > 100 µM | > 100 µM | > 100 µM | > 100 µM | – | > 100 µM | > 100 µM | > 100 µM | > 100 µM | > 100 µM | – | – | – | – | – | – | – | – | –
CCOC(=O)C1=C(C(=O)OCC)SC2(S1)C(C(=O)OCC)=C(C(=O)OCC)Sc1c2ssc1=O | 2.47 µM | 3.31 µM | 3.1 µM | 3.16 µM | 1.06 µM | 2.4 µM | 2.81 µM | 5.41 µM | 3.88 µM | 2.13 µM | – | – | – | – | – | – | – | – | –
COc1ccccc1C#C/C=C\C#Cc1ccccc1C#N | 83.5 µM | 34.4 µM | 94.6 µM | 24.5 µM | > 100 µM | 82.7 µM | > 100 µM | 65.4 µM | – | 81.8 µM | – | – | – | – | – | – | – | – | –
N#CC1(CCCI)CCCC1 | 23 µM | > 100 µM | > 100 µM | 31.1 µM | 58.9 µM | 45.1 µM | 35 µM | – | – | – | – | – | – | – | – | – | – | – | –
C[C@]12CC[C@H]3[C@@H](CC=C4C[C@@H](O)CC[C@@]43C)[C@@H]1C/C(=C\c1ccncc1)[C@@H]2O | 38 µM | 39.8 µM | 40.4 µM | > 100 µM | 31 µM | 45.9 µM | 27.6 µM | > 100 µM | 99.2 µM | 60.5 µM | – | – | – | – | – | – | – | – | –
Cc1[nH]c2ncn3[nH]c(=S)nc3c2c1Cc1ccccc1 | > 100 µM | > 100 µM | > 100 µM | > 100 µM | > 100 µM | > 100 µM | > 100 µM | > 100 µM | > 100 µM | > 100 µM | – | – | – | – | – | – | – | – | –
Cc1ncc(C(=O)Nc2ccc(CN3CCN(C)CC3)c(C(F)(F)F)c2)cc1C#Cc1cnc(N)c2ccc(C#N)cc12 | – | – | 1.61 µM | 8.09 µM | > 100 µM | 1.45 µM | 0.0783 µM | – | – | – | – | 0.0538 µM | 0.0949 µM | 0.4 µM | 0.0796 µM | 0.0165 µM | – | – | –
CC(C)CCN(CCC(C)C)CC(=O)Nc1ccc(S(=O)(=O)c2ccc(NC(=O)CN(CCC(C)C)CCC(C)C)cc2)cc1 | 5.87 µM | > 100 µM | 13.6 µM | 3.03 µM | 5.79 µM | 3.07 µM | 3.64 µM | 70.3 µM | 6.39 µM | – | 2.89 µM | 3.01 µM | 1.41 µM | 2.22 µM | 1.57 µM | 1.68 µM | 1.79 µM | 5.37 µM | 2.08 µM
O=C1Nc2cccc(Cl)c2/C1=C\c1cccnc1 | 7.48 µM | 20.1 µM | 16.8 µM | 21.2 µM | > 100 µM | 39.7 µM | 68 µM | 91.9 µM | – | 20.9 µM | – | – | – | – | – | – | – | – | –
O=C1N[C@H]2C(=O)c3c(Br)sc(Br)c3[C@H]2O1 | 10.4 µM | 13 µM | 21.7 µM | 17 µM | – | 32.1 µM | 28.9 µM | 58.6 µM | 22.4 µM | 24.1 µM | – | – | – | – | – | – | – | – | –
COC(=O)c1c(O)ccc2c1c1c(n2CCc2ccc(OC)c(OC)c2)C(=O)c2ccccc2C1=O | 39.5 µM | 32.6 µM | 35.8 µM | 40.6 µM | 59 µM | 28.1 µM | 43.6 µM | 37.2 µM | 52.3 µM | 32 µM | – | – | – | – | – | – | – | – | –
Nc1ccc(Oc2ccc(C34CC5CC(C3)CC(c3ccc(Oc6ccc(N)cc6C(F)(F)F)cc3)(C5)C4)cc2)c(C(F)(F)F)c1 | 25.1 µM | 29.5 µM | 40.3 µM | 37.7 µM | > 100 µM | – | – | 42.6 µM | 31.5 µM | > 100 µM | – | – | – | – | – | – | – | – | –
Cc1csc2nc(-c3cccc([N+](=O)[O-])c3)c(/C=N/N=C(N)N)n12 | – | 3.2 µM | 3.22 µM | 4.24 µM | 2.26 µM | 4.71 µM | 1.37 µM | 3.45 µM | 2.95 µM | 2.91 µM | – | – | – | – | – | – | – | – | –
CCCCCCCCCCCCc1ccc(S(=O)(=O)O)cc1.[Cu+2] | > 100 µM | > 100 µM | > 100 µM | > 100 µM | > 100 µM | > 100 µM | > 100 µM | > 100 µM | > 100 µM | > 100 µM | – | – | – | – | – | – | – | – | –
N#Cc1c(-c2ccc([N+](=O)[O-])cc2)c2c([nH]c1=O)-c1ccccc1CCC2 | 73.8 µM | > 100 µM | > 100 µM | > 100 µM | > 100 µM | > 100 µM | 48.4 µM | > 100 µM | > 100 µM | > 100 µM | – | – | – | – | – | – | – | – | –
